Assay results reported in US8481530B2, “3β-hydroxysteroid dehydrogenase inhibitors” (The Research Foundation of State University of New York, priority 2007, dated 2013).

Each compound was assayed against M. tuberculosis 3β-hydroxysteroid dehydrogenase (Mycobacterium tuberculosis, UniProt P9WQP7) (assay: 3β-hydroxysteroid dehydrogenase in vitro inhibitory activity assay). Details: not given.
Assay type: biochemical

M. tuberculosis 3β-hydroxysteroid dehydrogenase, sequence (P9WQP7 whole entry, looked up): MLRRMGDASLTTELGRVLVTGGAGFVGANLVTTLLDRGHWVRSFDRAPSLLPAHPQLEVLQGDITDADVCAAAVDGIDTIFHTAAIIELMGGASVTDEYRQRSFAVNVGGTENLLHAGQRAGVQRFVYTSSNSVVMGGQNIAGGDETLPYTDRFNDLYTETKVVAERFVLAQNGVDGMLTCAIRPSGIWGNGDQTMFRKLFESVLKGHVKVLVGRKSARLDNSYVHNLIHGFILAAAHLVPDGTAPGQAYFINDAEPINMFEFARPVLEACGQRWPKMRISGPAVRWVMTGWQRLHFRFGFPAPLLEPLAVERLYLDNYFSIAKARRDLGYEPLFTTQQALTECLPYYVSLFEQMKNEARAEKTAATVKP

CC(C)(C)c1ccc(C(F)(F)F)cc1NC(=O)[C@H]1CCC2C3CNC4=CC(=O)CC[C@]4(C)C3CC[C@@]21C (stereo partly shown) and CC(C)(C)c1ccc(C(C)(C)C)c(NC(=O)[C@H]2CCC3C4CNC5=CC(=O)CC[C@]5(C)C4CC[C@@]32C)c1 (stereo partly shown) fall in the same range of IC50: 1 to 50 µM for the first, 1 to 50 µM for the second.

Compared with C[C@]12CCC(=O)C=C1NCC1C2CC[C@@]2(C)C1CC[C@@H]2C(=O)Nc1ccc(N2CCOCC2)cc1 (stereo partly shown), CC(C)CCCC(C)[C@H]1CCC2C3CNC4=CC(=O)CC[C@]4(C)C3CC[C@@]21C (stereo partly shown) is lower in IC50: greater than 50 µM for the first, less than 1 µM for the second.

Same assay, conditions: purified enzyme, 150 μM dehydroepiandrosterone, 3.5 mM NAD+, pH 8.5, NADH at 340 nm; read-out: IC50 M. tuberculosis 3β-hydroxysteroid dehydrogenase

First: C[C@]12CCC(=O)C=C1NCC1C2CC[C@@]2(C)C1CC[C@@H]2C(=O)O (stereo partly shown)
Second: C[C@]12CCC(=O)C=C1NCC1C2CC[C@@]2(C)C1CC[C@@H]2C(=O)Nc1ccccc1C(=O)c1ccccc1 (stereo partly shown)
The IC50 of the first is higher: greater than 50 µM for the first, 1 to 50 µM for the second.

For CC(C)CCCC(C)[C@H]1CCC2C3C(CC[C@@]21C)[C@@]1(C)CCC(=O)C=C1N[C@H]3C (stereo partly shown), the IC50 was 1 to 50 µM.
